One test deals with sunflower. Put plainly: Test C preemergence. It counts as in vivo, Helianthus annuus. Conditions: for Plant response rating (scale of 0 to 100), Sunflower: Preemergence, 250 g ai/ha; for Sunflower plant response rating / Plant response rating, Sunflower: preemergence; for Plant response rating, Sunflower: 62 g ai/ha, scale 0 to 100, 0 = no effect, 100 = complete control. An excerpt: (§1) Seeds of plant species selected from blackgrass (Alopecurus myosuroides), ryegrass, Italian (Italian ryegrass, Lolium multiflorum), wheat (winter wheat, Triticum aestivum), galium (catchweed bedstraw, Galium aparine), corn (Zea mays), crabgrass, large (large crabgrass, Digitaria sanguinalis), foxtail, giant (giant foxtail, Setaria faberii), johnsongrass (Sorghum halepense), lambsquarters (Chenopodium album), morningglory (Ipomoea coccinea), nutsedge, yellow (yellow nutsedge, Cyperus esculentus), pigweed (redroot pigweed, Amaranthus retroflexus), ragweed (common ragweed, Ambrosia elation), soybean (Glycine max), barnyardgrass (Echinochloa crus-galli), oilseed rape (Brassica napus), waterhemp (common waterhemp, Amaranthus rudis), oat, wild (wild oat, Avena fatua), kochia (Kochia scoparia), Surinam grass (Brachiaria decumbens), foxtail, green (green foxtail, Setaria viridis), goosegrass (Eleusine indica), bromegrass, downy (downy bromegrass, Bromus tectorum), nightshade (eastern black nightshade, Solanum ptycanthum), cocklebur (common cocklebur, Xanthium strumarium), cupgrass, woolly (woolly cupgrass, Eriochloa villosa), bermudagrass (Cynodon dactylon), sunflower, (common oilseed sunflower, Helianthus annuus), Russian thistle (Salsola kali), and velvetleaf (Abutilon theophrasti) were planted into a blend of loam soil and sand and treated preemergence with test chemicals formulated in a non-phytotoxic solvent mixture which included a surfactant.
(§2) At the same time, plants selected from these crop and weed species and also chickweed (common chickweed, Stellaria media), canarygrass (littleseed canarygrass, Phalaris minor), and deadnettle (henbit deadnettle, Lamium amplexicaule), were planted in pots containing Redi-Earth® planting medium (Scotts Company, 14111 Scottslawn Road, Marysville, Ohio 43041) comprising spaghnum peat moss, vermiculite, wetting agent and starter nutrients and treated with postemergence applications of test chemicals formulated in the same manner. Plants ranged in height from 2 to 18 cm (1- to 4-leaf stage) for postemergence treatments. Treated plants and controls were maintained in a greenhouse for 13 to 15 days, after which time all species were compared to controls and visually evaluated. Plant response ratings, summarized in Table C, are based on a scale of 0 to 100 where 0 is no effect and 100 is complete control. A dash (-) response means no test result.

A further test concerns Surinam grass. Description: Test C postemergence. Type of test: in vivo, Brachiaria decumbens. As to conditions: for Surinam Grass plant response rating: 62 g ai/ha, scale 0 to 100.
Excerpt: as §1, §2

The test system of another test is Russian thistle. Description: Test D preemergence. It counts as in vivo, Salsola kali. Conditions: for Plant response rating, Russian Thistle: Preemergence, scale 0 to 100; for Plant response rating (scale 0 to 100), Russian Thistle: 16 g ai/ha, taken as preemergence. The source says: Seeds of plant species selected from bluegrass (annual bluegrass, Poa annua), blackgrass (Alopecurus myosuroides), canarygrass (littleseed canarygrass, Phalaris minor), chickweed (common chickweed, Stellaria media), galium (catchweed bedstraw, Galium aparine), bromegrass, downy (downy bromegrass, Bromus tectorum), field poppy (Papaver rhoeas), field violet (Viola arvensis), foxtail, green (green foxtail, Setaria viridis), deadnettle (henbit deadnettle, Lamium amplexicaule), ryegrass, Italian (Italian ryegrass, Lolium multiflorum), kochia (Kochia scoparia), lambsquarters (Chenopodium album), oilseed rape (Brassica napus), pigweed (redroot pigweed, Amaranthus retroflexus), chamomile (scentless chamomile, Matricaria inodora), speedwell (bird's-eye speedwell, Veronica persica), barley, spring (spring barley, Hordeum vulgare), wheat, spring (spring wheat, Triticum aestivum), buckwheat, wild (wild buckwheat, Polygonum convolvulus), mustard, wild (wild mustard, Sinapis arvensis), oat, wild (wild oat, Avena fatua), radish, wild (wild radish, Raphanus raphanistrum), windgrass (Apera spica-venti), Russian thistle (Salsola kali), barley, winter (winter barley, Hordeum vulgare), and wheat, winter (winter wheat, Triticum aestivum) were planted into a silt loam soil and treated preemergence with test chemicals formulated in a non-phytotoxic solvent mixture which included a surfactant.
At the same time, these species were planted in pots containing Redi-Earth® planting medium (Scotts Company, 14111 Scottslawn Road, Marysville, Ohio 43041) comprising spaghnum peat moss, vermiculite, wetting agent and starter nutrients and treated with postemergence applications of the test chemicals formulated in the same manner. Plants ranged in height from 2 to 18 cm (1- to 4-leaf stage). Treated plants and controls were maintained in a controlled growth environment for 14 to 21 days after which time all species were compared to controls and visually evaluated. Plant response ratings, summarized in Table D, are based on a scale of 0 to 100 where 0 is no effect and 100 is complete control. A dash (-) response means no test result.

For another test, the system named is common ragweed. Description: Test A preemergence. It counts as in vivo, Ambrosia elation. In a few lines: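 Visual injury ratings, 0 = no effect to 100 = complete control, taken about 10 days after treatment against untreated controls. Test chemicals, in a non-phytotoxic surfactant-containing solvent, were sprayed onto soil preemergence or onto one- to two-leaf plants (2–10 cm) postemergence, in loam–sand soil under greenhouse conditions.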

Setting [1] is: 31 g ai/ha, scale 0 to 100 (0 no effect, 100 complete control), 13 to 15 days.
Where [2] appears, read: 125 g ai/ha, scale 0 to 100, 0 is no effect, 100 is complete control.
Where [3] appears, read: 125 g ai/ha, scale 0 to 100, 0 no effect, 100 complete control.
[4] abbreviates: 250 g ai/ha, scale 0 to 100 (0 no effect, 100 complete control).
Where [5] appears, read: 125 g ai/ha, visual injury, 0 to 100 scale, approx. 10 days.
[6] abbreviates: 500 g ai/ha, visual injury after approx. 10 days, 0 to 100 scale (0 no effect, 100 complete control).

Molecules are shown by their SMILES.

As for `Cc1cc(C(=O)NCC(F)(F)F)nn1Cc1ccnc(C(F)(F)F)c1` [Compound 74], the “Plant response rating (scale of 0 to 100), Sunflower” value in the test on sunflower stood at 95. Further, the “Sunflower plant response rating” value with sunflower (setting [1]) amounted to 10; in the test on sunflower (setting [2]), 75. Further, the “Plant response rating, Sunflower” value with sunflower (13 to 15 days) is 40. For the same compound, the “Surinam Grass plant response rating” value in the test on Surinam grass came out at 10. Moreover, the “Plant response rating, Surinam Grass” value was 15 in the test with Surinam grass (setting [3]) and 25 with Surinam grass (setting [4]). Moreover, the figures for the “Plant response rating, Russian Thistle” value in the test on Russian thistle (31 g ai/ha), in the test with Russian thistle (62 g ai/ha) and in the test with Russian thistle (125 g ai/ha) were 70, 85 and 95, respectively.
In the case of `CCc1cc(C(=O)NOC(C)C)nn1Cc1ccnc(OC(F)F)c1` [Compound 126], the results for the “Common Ragweed plant response rating” value in the test on common ragweed (setting [5]) and in the test with common ragweed (setting [6]) were 90 and 100, respectively.
On the same counts, the results for `CCOc1cc(C(=O)NCC(F)(F)F)nn1Cc1ccnc(OC(F)F)c1` [Compound 128] are 70 and 90.
Take `CCCNC(=O)c1cc(OCC)n(Cc2ccnc(OC(F)F)c2)n1` [Compound 136]: the entries for the “Common Ragweed plant response rating” value in the test with common ragweed (setting [5]) and in the test with common ragweed (setting [6]) were 70 and 80, respectively.
Regarding `CCCNC(=O)c1cc(CC)n(Cc2cccc(OC(F)(F)F)c2)n1` [Compound 27], the “Surinam Grass plant response rating” value with Surinam grass is listed as 5. Moreover, the “Plant response rating, Surinam Grass” value in the test with Surinam grass (setting [3]) and in the test on Surinam grass (setting [4]) was 10 in each case.
`CCONC(=O)c1cc(CC)n(Cc2cccc(OC(F)(F)F)c2)n1` [Compound 72]: in the test on sunflower, the “Plant response rating (scale of 0 to 100), Sunflower” value came out at 20. Further, the “Sunflower plant response rating” value with sunflower (setting [1]) turned out to be 0; in the test on sunflower (setting [2]), 5. Also, the “Plant response rating, Sunflower” value in the test on sunflower (13 to 15 days) came out at 0. In the test on Surinam grass, the “Surinam Grass plant response rating” value is recorded as 10. For the same compound, the “Plant response rating, Surinam Grass” value in the test with Surinam grass (setting [3]) worked out at 10; with Surinam grass (setting [4]), 15.
With `CCc1cc(C(=O)NCC(F)(F)F)nn1Cc1cccc(OC(F)(F)F)c1` [Compound 20], the “Surinam Grass plant response rating” value with Surinam grass turned out to be 5. Besides, the “Plant response rating, Surinam Grass” value with Surinam grass (setting [3]) and in the test with Surinam grass (setting [4]) was 10 throughout.
On to `CCCc1cc(C(=O)NCC(F)(F)F)nn1Cc1ccnc(OC(F)F)c1` [Compound 127], for which the “Common Ragweed plant response rating” value with common ragweed (setting [5]) is given as 30; in the test with common ragweed (setting [6]), 90.
`CCCc1cc(C(=O)NC2CC2)nn1Cc1ccnc(OC(F)F)c1` [Compound 205]: the “Common Ragweed plant response rating (0 to 100 scale)” value in the test with common ragweed (125 g ai/ha, visual injury approx. 10 days after treatment) was found to be 70. The “Common Ragweed plant response rating” value in the test with common ragweed (setting [6]) was 100.
Regarding `CCc1cc(C(=O)NC2CC2)nn1Cc1ccnc(C(F)(F)F)c1` [Compound 76], in the test on Russian thistle, the “Plant response rating (scale 0 to 100), Russian Thistle” value came out at 50. The “Plant response rating, Russian Thistle” value in the test on Russian thistle (31 g ai/ha) was 65; in the test on Russian thistle (62 g ai/ha), 70; in the test with Russian thistle (125 g ai/ha) it was 80; in the test on Russian thistle (250 g ai/ha), 95.
On to `CCc1cc(C(=O)NOC(C)C)nn1Cc1cccc(OC(F)(F)F)c1` [Compound 70], for which the “Plant response rating (scale of 0 to 100), Sunflower” value with sunflower came to 5. For the same compound, the “Sunflower plant response rating” value with sunflower (setting [1]) worked out at 0; in the test with sunflower (setting [2]), 5. In addition, in the test with sunflower (13 to 15 days), the “Plant response rating, Sunflower” value is recorded as 0. The “Surinam Grass plant response rating” value in the test on Surinam grass is 10. Also, the “Plant response rating, Surinam Grass” value in the test on Surinam grass (setting [3]) was 20; with Surinam grass (setting [4]), 30. In the test with Russian thistle, the “Plant response rating (scale 0 to 100), Russian Thistle” value came to 0. Also, the “Plant response rating, Russian Thistle” value in the test with Russian thistle (31 g ai/ha) is reported as 0; in the test with Russian thistle (62 g ai/ha), 90; with Russian thistle (125 g ai/ha) it was 90; with Russian thistle (250 g ai/ha), 100.

(Values after US20150105252A1, “SUBSTITUTED PYRAZOLES AS HERBICIDES” (E I DU PONT DE NEMOURS AND COMPANY, priority 2013, published 2015).)
